pIC50: −log10 of the molar value. Where a name gives a salt, the structure may show the parent alone. Read-outs that look alike come from different tables or passages of the source.
Tests used:
Assay type in all cases: cell-based
SARS-CoV-2 [1] = assay: In vitro antiviral assay, development of cytopathic effects (CPE), Example 1; conditions: for minimal effective concentration: ten-fold dilutions from 25 µM, read-out: Initial titre (Minimum concentration of drug inhibiting development of CPE)
VeroE6 cells = assay: Evaluation of toxicity without virus (CPE and MTT assay), Example 1; conditions: for Minimum Cytotoxicity: absence of virus, 72 h
Procedure: Serially diluted compounds (⅒ dilution) were added in each well in the absence of virus and incubated for 72 hours, and at end point the CPE was recorded as above. In parallel, a duplicate plate was set up for an MTT assay (Abcam Ab 211091) carried out following the manufacturer’s recommendations. Briefly, the culture medium was discarded and 50 µl of fresh medium and MTT reagent was added to each well, including a background (no cell) control. The plates were returned to the 37° C. incubator for 3 hours before the MTT/media solution was discarded and 150 µl of MTT solvent was added to each well. The plates were incubated for a further 15 minutes in foil on a hula mixer and the absorbance recorded at 590 nm. The percentage of cytotoxicity was calculated as follows: (DMSO control - sample)/DMSO control, after replicate values were averaged and corrected for the background control (no cell control).

SARS-CoV-2 [2] = assay: microbe, parasite or virus in culture
[3] = Severe acute respiratory syndrome coronavirus 2, Vero C1008, 20 PFU/well SARS-CoV-2, VeroE6 cells, 72 h
[4] = Severe acute respiratory syndrome coronavirus 2, Vero C1008, 72 h, 20 PFU/well SARS-CoV-2, VeroE6 cells, 72 h, narrower dilution steps in quadruplicate, read-out: Repeat TCID50 (TCID50 measurement for drugs showing greatest initial efficacy on titration)
[5] = Severe acute respiratory syndrome coronavirus 2, Vero C1008, Table 3A, predetermined IC50 of individual drug, Vero-E6, 20 pfu/well, read-out: IC50 (drug used alone)
[6] = Severe acute respiratory syndrome coronavirus 2, Vero C1008, Vero-E6, 20 pfu/well, 72 h, read-out: IC50 measured when each drug used individually
[7] = Severe acute respiratory syndrome coronavirus 2, Vero C1008, 72 h, read-out: IC50 measured when each drug used individually
[8] = Severe acute respiratory syndrome coronavirus 2, Vero C1008, read-out: IC50 (drug used alone)

| SMILES | minimal effective concentration (SARS-CoV-2 [1]; [3]) | Minimum Cytotoxicity (VeroE6 cells) | further results |
| --- | --- | --- | --- |
| COC(=O)N[C@H](C(=O)N[C@@H](Cc1ccccc1)[C@@H](O)CN(Cc1ccc(-c2ccccn2)cc1)NC(=O)[C@@H](NC(=O)OC)C(C)(C)C)C(C)(C)C [Atazanavir] | > 25 µM | >25 µM | – |
| C[C@H]1[C@H](NC(=O)/C(=N\OC(C)(C)C(=O)O)c2csc(N)n2)C(=O)N1S(=O)(=O)O [Aztreonam] | > 25 µM | >25 µM | – |
| CC(C)c1nc(CN(C)C(=O)N[C@@H](CCN2CCOCC2)C(=O)N[C@H](CC[C@H](Cc2ccccc2)NC(=O)OCc2cncs2)Cc2ccccc2)cs1 [Cobicistat] | > 25 µM | >25 µM | – |
| Nc1nc(F)nc2c1ncn2[C@@H]1O[C@H](COP(=O)(O)O)[C@@H](O)[C@@H]1O [Fludarabine phosphate] | – | 25 µM | cytotoxicity in the MTT assay (VeroE6 cells; at 2.5 µM): none; cytotoxicity in the MTT assay (VeroE6 cells; at 25 µM): showed cytotoxicity |
| Nc1nc(=O)c2c([nH]1)NCC(CNc1ccc(C(=O)N[C@@H](CCC(=O)[O-])C(=O)[O-])cc1)N2C=O.[Ca+2] (some centres unmarked) [Folinic acid calcium salt hydrate] | – | >25 µM | minimal effective concentration (SARS-CoV-2 [1]; 20 PFU/well SARS-CoV-2, VeroE6 cells, 72 h): >25 µM |
| CCN(CCO)CCCC(C)Nc1ccnc2cc(Cl)ccc12 (centres unmarked) [Hydroxychloroquine] | 25 µM | 25 µM | pIC50 (SARS-CoV-2 [1]; 20 PFU/well SARS-CoV-2, VeroE6 cells, 72 h, narrower dilution steps in quadruplicate, read-out: Repeat TCID50 (TCID50 measurement for drugs showing greatest initial efficacy on titration)): 5.54; pIC50 (SARS-CoV-2 [1]; [4]): 5.70; cytotoxicity in the MTT assay (VeroE6 cells; at 2.5 µM): none; cytotoxicity in the MTT assay (VeroE6 cells; at 25 µM): showed cytotoxicity; pIC50 (SARS-CoV-2 [2]; [5]): 5.80; pIC50 (SARS-CoV-2 [2]; [6]): 5.80 |
| CC(C)(C)NC(=O)[C@@H]1CN(Cc2cccnc2)CCN1C[C@@H](O)C[C@@H](Cc1ccccc1)C(=O)N[C@H]1c2ccccc2C[C@H]1O [Indinavir sulfate] | – | >25 µM | – |
| CS(=O)(=O)c1cccc(C[C@H](NC(=O)c2c(Cl)cc3c(c2Cl)CCN(C(=O)c2ccc4ccoc4c2)C3)C(=O)O)c1 [Lifitegrast] | > 25 µM | >25 µM | – |
| CCCNS(=O)(=O)Nc1ncnc(OCCOc2ncc(Br)cn2)c1-c1ccc(Br)cc1 [Macitentan] | > 25 µM | >25 µM | – |
| Cc1c(O)cccc1C(=O)N[C@@H](CSc1ccccc1)[C@H](O)CN1C[C@H]2CCCC[C@H]2C[C@H]1C(=O)NC(C)(C)C [Nelfinavir mesylate] | – | 25 µM | pIC50 (SARS-CoV-2 [1]; Severe acute respiratory syndrome coronavirus 2, Vero C1008, 72 h, read-out: Repeat TCID50 (TCID50 measurement for drugs showing greatest initial efficacy on titration), 20 PFU/well SARS-CoV-2, VeroE6 cells, 72 h, narrower dilution steps in quadruplicate): 5.54; pIC50 (SARS-CoV-2 [1]; read-out: Repeat TCID50 (TCID50 measurement for drugs showing greatest initial efficacy on titration), 20 PFU/well SARS-CoV-2, VeroE6 cells, 72 h, narrower dilution steps in quadruplicate): 5.70; cytotoxicity in the MTT assay (VeroE6 cells; at 2.5 µM): none; cytotoxicity in the MTT assay (VeroE6 cells; at 25 µM): showed cytotoxicity; pIC50 (SARS-CoV-2 [2]; [7]): 6.41; pIC50 (SARS-CoV-2 [2]; [8]): 6.41 |
| Cc1onc(-c2ccccc2)c1C(=O)N1CCN(c2ccc([N+](=O)[O-])cc2Cl)CC1 [Nucleozin] | > 25 µM | >25 µM | – |
| CCC(CC)COC(=O)[C@H](C)N[P@](=O)(OC[C@H]1O[C@@](C#N)(c2ccc3c(N)ncnn23)[C@H](O)[C@@H]1O)Oc1ccccc1 [Remdesivir] | – | – | pIC50 (SARS-CoV-2 [2]; [7]): 5.81; pIC50 (SARS-CoV-2 [2]; [8]): 5.81 |
| Cc1cc(/C=C/C#N)cc(C)c1Nc1ccnc(Nc2ccc(C#N)cc2)n1 [Rilpivirine hydrochloride] | > 25 µM | >25 µM | – |
| Cn1nnc(-c2ccc(-c3ccc(N4C[C@H](COP(=O)(O)O)OC4=O)cc3F)cn2)n1 [Tedizolid phosphate] | > 25 µM | >25 µM | – |
| CCCc1nc(C)c2c(=O)[nH]c(-c3cc(S(=O)(=O)N4CCN(CC)CC4)ccc3OCC)nn12 [Vardenafil hydrochloride trihydrate, 2-[2-ethoxy-5-(4-ethylpiperazin-1-yl)sulfonylphenyl]-5-methyl-7-propyl-3H-imidazo[5,1-f][1,2,4]triazin-4-one] | 25 µM | >25 µM | pIC50 (SARS-CoV-2 [1]; [4]): < 4.60; pIC50 (SARS-CoV-2 [2]; [5]): 5.20; pIC50 (SARS-CoV-2 [2]; [6]): 5.20 |
